This note sets out measurements from ChEMBL document CHEMBL4007467, “Effects of 6-paradol, an unsaturated ketone from gingers, on cytochrome P450-mediated drug metabolism” (Bioorg Med Chem Lett, 2017).

Assay type in all cases: ADME
The target in one data set is T1, Cytochrome P450 2C8 (Homo sapiens, UniProt P10632).
T1 sequence (P10632 whole entry): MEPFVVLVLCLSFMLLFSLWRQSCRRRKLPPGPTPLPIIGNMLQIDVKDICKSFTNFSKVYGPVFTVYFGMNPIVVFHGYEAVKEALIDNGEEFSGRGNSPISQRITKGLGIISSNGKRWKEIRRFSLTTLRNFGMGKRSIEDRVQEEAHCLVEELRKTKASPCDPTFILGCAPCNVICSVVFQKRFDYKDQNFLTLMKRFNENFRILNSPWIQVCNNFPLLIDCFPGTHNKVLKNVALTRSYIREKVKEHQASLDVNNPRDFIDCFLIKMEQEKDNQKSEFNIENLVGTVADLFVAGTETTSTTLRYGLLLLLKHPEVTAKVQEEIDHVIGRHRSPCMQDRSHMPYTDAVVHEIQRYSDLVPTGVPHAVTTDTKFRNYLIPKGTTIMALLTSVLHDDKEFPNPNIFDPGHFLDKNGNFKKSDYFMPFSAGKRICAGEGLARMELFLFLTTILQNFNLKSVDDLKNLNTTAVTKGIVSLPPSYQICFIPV
Kind of data set: Inhibition of human CYP2C8 using paclitaxel as substrate incubated for 5 mins followed by NADPH addition measured after 30 mins by LC-MS/MS analysis.

Data set [1] concerns the target T2, CYP2C8 (Homo sapiens, UniProt P10632).
T2 sequence (P10632 whole entry): T1 sequence (P10632 whole entry)
Nature of the data set: Inhibition of CYP2C8 in human liver microsomes assessed as enzyme-mediated metabolite formation at 0.3 uM using paclitaxel as substrate preincubated for 20 mins followed by substrate addition measured after 30 mins in presence of NADPH by LC-MS/MS analysis relative to control. The arrangement: scale not given: the % may be the effect or the level left. The settings on record: probe paclitaxel, read-out: Activity.

In data set [2] the target is T3, CYP2D6 (Homo sapiens, UniProt P10635). Nature of the data set: Inhibition of CYP2D6 in human liver microsomes assessed as enzyme-mediated metabolite formation at 10 uM using dextromethorphan as substrate preincubated for 20 mins followed by substrate addition measured after 30 mins in presence of NADPH by LC-MS/MS analysis relative to control. The arrangement: scale not given: the % may be the effect or the level left. The settings on record: probe dextromethorphan, read-out: Activity.

For the next data set, the target named is Cytochrome P450 2C19 (Homo sapiens, UniProt P33261). Nature of the data set: Inhibition of CYP2C19 in human liver microsomes assessed as enzyme-mediated metabolite formation using (S)-mephenytoin as substrate incubated for 5 mins followed by NADPH addition measured after 30 mins by LC-MS/MS analysis.
Data set [3] addresses T3, CYP2D6. Kind of data set: Inhibition of CYP2D6 in human liver microsomes assessed as enzyme-mediated metabolite formation at 3 uM using dextromethorphan as substrate preincubated for 20 mins followed by substrate addition measured after 30 mins in presence of NADPH by LC-MS/MS analysis relative to control. The arrangement: scale not given: the % may be the effect or the level left. The settings on record: probe dextromethorphan, read-out: Activity.

Data set [4] addresses T4, CYP3A4 (Homo sapiens, UniProt P08684). Nature of the data set: Inhibition of CYP3A4 in human liver microsomes assessed as enzyme-mediated metabolite formation at 10 uM using testosterone as substrate incubated for 5 mins followed by NADPH addition measured after 30 mins by LC-MS/MS analysis relative to control. The arrangement: scale not given: the % may be the effect or the level left. The conditions noted are these: probe testosterone, read-out: Activity.

In the next data set the target is CYP2C19 (Homo sapiens, UniProt P33261). Nature of the data set: Inhibition of CYP2C19 in human liver microsomes assessed as enzyme-mediated metabolite formation at 0.3 uM using (S)-mephenytoin as substrate preincubated for 20 mins followed by substrate addition measured after 30 mins in presence of NADPH by LC-MS/MS analysis relative to control. On the set-up: scale not given: the % may be the effect or the level left. The conditions noted are these: probe (S)-mephenytoin, read-out: Activity.

In data set [5] the target is T2, CYP2C8. Nature of the data set: Inhibition of CYP2C8 in human liver microsomes assessed as enzyme-mediated metabolite formation at 3 uM using paclitaxel as substrate preincubated for 20 mins followed by substrate addition measured after 30 mins in presence of NADPH by LC-MS/MS analysis relative to control. On the set-up: scale not given: the % may be the effect or the level left. The conditions noted are these: probe paclitaxel, read-out: Activity.

The next data set addresses T5, Cytochrome P450 2A6 (Homo sapiens, UniProt P11509).
T5 sequence (P11509 whole entry): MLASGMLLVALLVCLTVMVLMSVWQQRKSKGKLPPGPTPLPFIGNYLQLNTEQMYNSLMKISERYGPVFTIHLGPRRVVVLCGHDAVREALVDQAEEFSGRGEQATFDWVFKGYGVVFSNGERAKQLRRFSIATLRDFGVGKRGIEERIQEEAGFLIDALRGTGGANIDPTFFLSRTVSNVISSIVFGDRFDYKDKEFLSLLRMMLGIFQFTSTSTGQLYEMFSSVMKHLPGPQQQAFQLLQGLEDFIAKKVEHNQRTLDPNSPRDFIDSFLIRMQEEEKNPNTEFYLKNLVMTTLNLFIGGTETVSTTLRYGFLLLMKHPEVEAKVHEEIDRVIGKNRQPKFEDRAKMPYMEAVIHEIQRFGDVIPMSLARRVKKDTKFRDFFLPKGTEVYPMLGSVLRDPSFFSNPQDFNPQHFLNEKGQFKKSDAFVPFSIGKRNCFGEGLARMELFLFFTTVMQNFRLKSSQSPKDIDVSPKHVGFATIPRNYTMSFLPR
Nature of the data set: Inhibition of CYP2A6 in human liver microsomes using coumarin as substrate preincubated for 20 mins followed by substrate addition measured after 30 mins in presence of NADPH by LC-MS/MS analysis.

The target in the next data set is Cytochrome P450 2D6 (Homo sapiens, UniProt P10635). Kind of data set: Inhibition of CYP2D6 in human liver microsomes assessed as enzyme-mediated metabolite formation using dextromethorphan as substrate incubated for 5 mins followed by NADPH addition measured after 30 mins by LC-MS/MS analysis.
Data set [6] has as its target T6, CYP2C9 (Homo sapiens, UniProt P11712). Nature of the data set: Inhibition of CYP2C9 in human liver microsomes assessed as enzyme-mediated metabolite formation at 3 uM using diclofenac as substrate incubated for 5 mins followed by NADPH addition measured after 30 mins by LC-MS/MS analysis relative to control. On the set-up: scale not given: the % may be the effect or the level left. The conditions noted are these: probe diclofenac, read-out: Activity.

The target in data set [7] is T4, CYP3A4. Kind of data set: Inhibition of CYP3A4 in human liver microsomes assessed as enzyme-mediated metabolite formation at 10 uM using midazolam as substrate incubated for 5 mins followed by NADPH addition measured after 30 mins by LC-MS/MS analysis relative to control. The arrangement: scale not given: the % may be the effect or the level left. The conditions noted are these: probe midazolam, read-out: Activity.

Data set [8] has as its target T4, CYP3A4. Nature of the data set: Inhibition of CYP3A4 in human liver microsomes assessed as enzyme-mediated metabolite formation at 10 uM using testosterone as substrate preincubated for 20 mins followed by substrate addition measured after 30 mins in presence of NADPH by LC-MS/MS analysis relative to control. On the set-up: scale not given: the % may be the effect or the level left. The settings on record: probe testosterone, read-out: Activity.

In data set [9] the target is T3, CYP2D6. Kind of data set: Inhibition of CYP2D6 in human liver microsomes assessed as enzyme-mediated metabolite formation at 1 uM using dextromethorphan as substrate incubated for 5 mins followed by NADPH addition measured after 30 mins by LC-MS/MS analysis relative to control. The arrangement: scale not given: the % may be the effect or the level left. The settings on record: probe dextromethorphan, read-out: Activity.

Another data set addresses Cytochrome P450 3A4 (Homo sapiens, UniProt P08684). Nature of the data set: Inhibition of CYP3A4 in human liver microsomes using testosterone as substrate preincubated for 20 mins followed by substrate addition measured after 30 mins in presence of NADPH by LC-MS/MS analysis.
Data set [10] has as its target T6, CYP2C9. Kind of data set: Inhibition of CYP2C9 in human liver microsomes assessed as enzyme-mediated metabolite formation at 1 uM using diclofenac as substrate preincubated for 20 mins followed by substrate addition measured after 30 mins in presence of NADPH by LC-MS/MS analysis relative to control. The arrangement: scale not given: the % may be the effect or the level left. The conditions noted are these: probe diclofenac, read-out: Activity.

Structures are written as SMILES.

T3 sequence (P10635 whole entry): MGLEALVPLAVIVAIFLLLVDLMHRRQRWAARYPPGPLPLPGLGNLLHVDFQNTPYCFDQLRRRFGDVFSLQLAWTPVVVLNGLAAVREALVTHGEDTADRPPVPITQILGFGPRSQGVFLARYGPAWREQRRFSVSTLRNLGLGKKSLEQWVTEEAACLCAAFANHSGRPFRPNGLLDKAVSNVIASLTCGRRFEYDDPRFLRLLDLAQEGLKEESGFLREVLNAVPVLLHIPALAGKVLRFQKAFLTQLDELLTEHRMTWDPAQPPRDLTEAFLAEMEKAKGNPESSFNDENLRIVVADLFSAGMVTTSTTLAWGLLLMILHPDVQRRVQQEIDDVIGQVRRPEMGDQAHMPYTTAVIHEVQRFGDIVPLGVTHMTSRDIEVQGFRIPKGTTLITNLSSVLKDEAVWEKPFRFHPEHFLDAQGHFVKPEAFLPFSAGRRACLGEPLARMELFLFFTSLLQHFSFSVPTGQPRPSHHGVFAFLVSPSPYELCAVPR
T4 sequence (P08684 whole entry): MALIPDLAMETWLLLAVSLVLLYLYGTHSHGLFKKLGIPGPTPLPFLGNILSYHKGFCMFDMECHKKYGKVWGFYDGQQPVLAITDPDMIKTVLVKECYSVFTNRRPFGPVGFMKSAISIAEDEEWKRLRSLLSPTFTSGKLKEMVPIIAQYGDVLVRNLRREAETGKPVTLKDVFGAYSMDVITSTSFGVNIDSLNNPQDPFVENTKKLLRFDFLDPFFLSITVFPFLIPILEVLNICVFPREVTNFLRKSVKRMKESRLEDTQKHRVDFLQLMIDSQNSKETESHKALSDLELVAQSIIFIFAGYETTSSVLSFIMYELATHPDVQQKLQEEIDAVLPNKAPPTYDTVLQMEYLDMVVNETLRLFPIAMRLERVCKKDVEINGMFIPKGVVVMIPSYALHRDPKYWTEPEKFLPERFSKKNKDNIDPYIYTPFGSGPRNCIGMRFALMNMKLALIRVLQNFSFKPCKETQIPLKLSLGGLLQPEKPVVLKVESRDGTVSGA
T6 sequence (P11712 whole entry): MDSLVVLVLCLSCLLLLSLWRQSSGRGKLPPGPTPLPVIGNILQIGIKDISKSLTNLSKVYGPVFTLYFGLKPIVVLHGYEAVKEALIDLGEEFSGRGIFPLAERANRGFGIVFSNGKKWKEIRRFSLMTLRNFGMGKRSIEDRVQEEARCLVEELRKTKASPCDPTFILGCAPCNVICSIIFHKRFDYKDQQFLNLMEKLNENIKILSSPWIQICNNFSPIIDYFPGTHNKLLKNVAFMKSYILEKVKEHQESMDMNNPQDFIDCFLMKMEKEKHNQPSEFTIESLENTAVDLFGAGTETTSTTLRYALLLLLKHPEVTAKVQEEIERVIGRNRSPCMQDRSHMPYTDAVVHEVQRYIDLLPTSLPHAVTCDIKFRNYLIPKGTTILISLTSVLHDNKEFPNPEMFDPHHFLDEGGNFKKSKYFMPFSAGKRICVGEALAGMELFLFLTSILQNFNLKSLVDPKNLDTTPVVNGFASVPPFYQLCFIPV
Sequence of Cytochrome P450 2C19 (P33261 whole entry): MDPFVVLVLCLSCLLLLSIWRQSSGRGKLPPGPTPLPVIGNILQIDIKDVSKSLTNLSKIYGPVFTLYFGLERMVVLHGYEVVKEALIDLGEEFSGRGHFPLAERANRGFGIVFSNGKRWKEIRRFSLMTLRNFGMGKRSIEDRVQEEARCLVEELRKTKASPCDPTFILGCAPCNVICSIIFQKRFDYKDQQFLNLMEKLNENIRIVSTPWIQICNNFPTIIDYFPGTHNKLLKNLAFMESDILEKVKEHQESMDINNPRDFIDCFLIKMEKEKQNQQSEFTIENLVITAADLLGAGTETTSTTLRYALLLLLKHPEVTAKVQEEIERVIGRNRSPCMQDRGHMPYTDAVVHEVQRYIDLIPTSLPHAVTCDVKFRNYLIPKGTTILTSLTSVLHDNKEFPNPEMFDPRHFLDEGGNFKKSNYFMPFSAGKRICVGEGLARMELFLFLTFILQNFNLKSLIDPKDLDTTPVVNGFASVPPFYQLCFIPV
Sequence of CYP2C19 (P33261 whole entry): as above
Sequence of Cytochrome P450 2D6 (P10635 whole entry): as the sequence (P10635 whole entry) above
Sequence of Cytochrome P450 3A4 (P08684 whole entry): as the sequence (P08684 whole entry) above

As to `CCCCCCCC(=O)CCc1ccc(O)c(OC)c1`, the concentration for half-maximal inhibition (IC50) against Cytochrome P450 2C8 is 3.8 µM; at Cytochrome P450 2C19, 17.6 µM; at Cytochrome P450 2A6, more than 30 µM; at Cytochrome P450 2D6, more than 30 µM; at Cytochrome P450 3A4, more than 30 µM. For the same molecule, the “inhibition (INH)” value against Cytochrome P450 2C8 (human, 0.5 h) is on record as “Dose-dependent effect”. Also, the values for the activity at 0.5 h, 0.3 µM at CYP2C8 [1] and on CYP2C19 were 77.2% and 81.5%, respectively. Moreover, the activity at 0.5 h, 10 µM on CYP2D6 [2] came out at 99.4%; on CYP3A4 [4] it was 58.6%; at CYP3A4 [7] it was 71%; on CYP3A4 [8] it was 83.6%. Further, the activity at 0.5 h, 3 µM on CYP2D6 [3] turned out to be 103%; at CYP2C8 [5], 56.6%; on CYP2C9 [6], 68.1%. Moreover, the values for the activity at 0.5 h, 1 µM at CYP2D6 [9] and on CYP2C9 [10] were 75.9% and 81.1%, respectively.
